Read-outs that look alike come from different tables or passages of the source.
How the values were obtained:
[1] = Stability in human blood serum (radio-HPLC); type: in vitro ADME; details: 37 °C
Method: Ligand stability in human blood serum (n = 2) and PBS (pH = 6.5) (n = 1) was determined for different time points (2 min, 30 min, 60 min, 120 min). Therefore, approx. 5 MBq of radioligand was added to 1 mL of fresh human serum at 37 °C or PBS at rt. At each given time point 100 µL of the mixture were transferred to a 1.5 mL Eppendorf tube containing 100 µL of acetonitrile. The vial was vortexed and centrifuged for 2 min at 14,000 1/min before 100 µL of the supernatant were diluted with 200 µL of water and injected into analytical radio-HPLC. The PBS solution was directly injected into the radio-HPLC. Ligand stability was determined by integrating the areas of the signals in the radio chromatogram in relation to the signal of the intact ligand.

[2] = Partition coefficient logD (n-octanol/PBS); type: physicochemical; details: n=6
Method: For determination of logarithmic partition coefficients (logD) n-Octanol (500 µL) and PBS (500 µL) were pipetted into eight 1.5 mL Protein Low-Bind Eppendorf tubes followed by addition of 300 kBq of labelled compound. The vials were vortexed for 5 min at 1,500 1/min and then centrifuged for 5 min at 20,000 rcf (Eppendorf Centrifuge 5424). Aliquots of 100 µL were taken out of each phase and the amount of activity was quantified in a γ-counter (Perkin Elmer 2480 Wizard2 3"; Waltham, Massachusetts, USA).

[3] = Protein binding in human serum (MicroSpin G-50 columns); type: in vitro ADME; details: fresh human serum, 37 °C, n=3
Method: Protein binding was determined for different time points (2 min, 30 min, 60 min, 120 min) in triplicates using Sephadex MicroSpin G-50 columns (GE-Healthcare, Chicago, Illinois, USA). The columns were spun initially at 20,000 rcf for 1 min to remove the storage buffer. Then approx. 5 MBq of radioligand was added to 1 mL of fresh human serum and incubated at 37 °C. At each given timepoint 25 µL of the mixture was loaded on to the column, which was then spun at 20,000 rcf for 1 min. The activity content on the column (free radioligand) and in the filtrate (protein bound fraction) was quantified in a γ-counter.

[4] = Biodistribution studies in BALB/c mice; type: in vivo; details: for tissue uptake at 10 min / tissue uptake at 0.5 h / tissue uptake at 1 h: female, mouse, iv, total radioactivity, healthy BALB/c mice, 0.1 nmol i.v.; for tissue uptake at 10 min: 10 min p.i.; for tissue uptake at 0.5 h: 30 min p.i.; for tissue uptake at 1 h: 60 min p.i.
Method: For biodistribution studies 6-week-old female BALB/c mice (n=3) were injected with 0.1 nmol (100 µL, approx. 1 MBq) of labelled compound via the lateral tail vein and sacrificed after 10, 30, or 60 min by cervical dislocation. The mice were dissected, blood and organs (spleen, pancreas, stomach, intestine, liver, kidney, heart, lung, muscle and bone) were weighed and their activity measured in a γ-counter. For blocking experiments, mice were co-injected with 27.7 µmοl N-acetylgalactose.

[5] = Blood, read-out: Biodistribution data, Blood
[6] = Femur, read-out: Biodistribution data, Femur
[7] = Heart, read-out: Biodistribution data, Heart
[8] = Intestine, read-out: Biodistribution data, Intestine
[9] = Kidneys, read-out: Biodistribution data, Kidneys
[10] = Liver, read-out: Biodistribution data, Liver
[11] = Lung, read-out: Biodistribution data, Lung
[12] = Muscle, read-out: Biodistribution data, Muscle
[13] = Pancreas, read-out: Biodistribution data, Pancreas
[14] = Spleen, read-out: Biodistribution data, Spleen
[15] = Stomach, read-out: Biodistribution data, Stomach

NC(=O)CNC(=O)CNC(=O)[C@H](CCCCNC(=O)CCCCc1cn(C2O[C@H](CO)[C@H](O)[C@H](O)[C@H]2O)nn1)NC(=O)CNC(=O)CNC(=O)[C@H](CCCCNC(=O)CCCCc1cn(C2O[C@H](CO)[C@H](O)[C@H](O)[C@H]2O)nn1)NC(=O)CNC(=O)CNC(=O)[C@H](CCCCNC(=O)CCCCc1cn(C2O[C@H](CO)[C@H](O)[C@H](O)[C@H]2O)nn1)NC(=O)CCCNC(=O)CC[C@H](C(=O)O)N1CCN(CC(=O)O)CCN(CC(=O)O)CC1 (stereo partly shown) [[68Ga]Ga-TriLysan, metal not drawn]
remaining at 2 min ([1]; 2 min, n=2, read-out: Serum stability (% of intact ligand)): 99.9% | remaining at 0.5 h ([1]; 30 min, n=2, read-out: Serum stability (% of intact ligand)): 99.9% | remaining at 1 h ([1]; 60 min, n=2, read-out: Serum stability (% of intact ligand)): 99.9% | Serum stability (% of intact ligand) ([1]; 120 min, n=2): 99.9 ± 0% | logD [2]: -3.52 ± 0.03 | fraction unbound at 2 min, 5 MBq/mL ([3]; 2 min): 0.82 | fraction unbound at 30 min, 5 MBq/mL ([3]; 30 min): 0.798 | fraction unbound at 60 min, 5 MBq/mL ([3]; 60 min): 0.831 | fraction unbound ([3]; 120 min): 0.857 ± 0.126 | activity accumulation in the liver (in words) ([4]; BALB/c mice, comparison with ^99mTc-GSA): low accumulation | tissue uptake at 10 min [4, 5]: 3.64 ± 0.08 %ID/g | tissue uptake at 0.5 h [4, 5]: 1.6 ± 0.17 %ID/g | tissue uptake at 1 h [4, 5]: 0.27 ± 0.01 %ID/g | tissue uptake at 10 min [4, 6]: 0.89 ± 0.32 %ID/g | tissue uptake at 0.5 h [4, 6]: 0.39 ± 0.02 %ID/g | tissue uptake at 1 h [4, 6]: 0.11 ± 0.01 %ID/g | tissue uptake at 10 min [4, 7]: 1.41 ± 0.01 %ID/g | tissue uptake at 0.5 h [4, 7]: 0.63 ± 0.04 %ID/g | tissue uptake at 1 h [4, 7]: 0.15 ± 0.01 %ID/g | tissue uptake at 10 min [4, 8]: 1.24 ± 0.26 %ID/g | tissue uptake at 0.5 h [4, 8]: 1.13 ± 0.02 %ID/g | tissue uptake at 1 h [4, 8]: 1.04 ± 0.26 %ID/g | tissue uptake at 10 min [4, 9]: 7.56 ± 1.35 %ID/g | tissue uptake at 0.5 h [4, 9]: 4.99 ± 0.02 %ID/g | tissue uptake at 1 h [4, 9]: 1.99 ± 0.34 %ID/g | tissue uptake at 10 min [4, 10]: 9.45 ± 1.58 %ID/g | tissue uptake at 0.5 h [4, 10]: 9.44 ± 1.99 %ID/g | tissue uptake at 1 h [4, 10]: 9.19 ± 0.27 %ID/g | tissue uptake at 10 min [4, 11]: 2.56 ± 0.17 %ID/g | tissue uptake at 0.5 h [4, 11]: 1.15 ± 0.11 %ID/g | tissue uptake at 1 h [4, 11]: 0.47 ± 0.06 %ID/g | tissue uptake at 10 min [4, 12]: 0.9 ± 0.05 %ID/g | tissue uptake at 0.5 h [4, 12]: 0.4 ± 0.04 %ID/g | tissue uptake at 1 h [4, 12]: 0.12 %ID/g | tissue uptake at 10 min [4, 13]: 0.97 ± 0.04 %ID/g | tissue uptake at 0.5 h [4, 13]: 0.44 %ID/g | tissue uptake at 1 h [4, 13]: 0.17 ± 0.01 %ID/g | tissue uptake at 10 min [4, 14]: 1 ± 0.01 %ID/g | tissue uptake at 0.5 h [4, 14]: 0.42 ± 0.02 %ID/g | tissue uptake at 1 h [4, 14]: 0.16 %ID/g | tissue uptake at 10 min [4, 15]: 1.55 ± 0.24 %ID/g | tissue uptake at 0.5 h [4, 15]: 0.88 ± 0.09 %ID/g | tissue uptake at 1 h [4, 15]: 0.31 ± 0.05 %ID/g

Reference: EP4640240A1, “PEPTIDE-BASED RADIOPHARMACEUTICALS FOR NON-INVASIVE IMAGING OF THE FUNCTIONAL LIVER RESERVE” (Medizinische Universität Innsbruck, priority 2024, dated 2025)
